The values that follow come from US5929075A, “Apolipoprotein-B synthesis inhibitors” (Janssen Pharmaceutica, N.V., priority 1994, dated 1999).

The assay concerns apolipoprotein B. Kind of assay: Apolipoprotein B (apo B) inhibition test in cultured human liver cells (Hepg2-cells). The format is cell-based. Particulars: concentration of the drug needed to reduce apoB secretion to 50% of the control, overnight at 37° C. The procedure: Cultured human liver cells (Hepg2-cells), which synthesize and secrete low-density lipoproteins, were incubated overnight at 37° C. in a liquid medium containing radioactively labelled leucine. Thus radioactively labelled leucine was incorporated into the apolipoprotein B. The liquid medium was decanted and the apolipoprotein B was isolated by means of a double immunoprecipitation, i.e. first an apolipoprotein B-specific antibody (antibody1) was added to the liquid medium and subsequently a second antibody (antibody2) was added which binds specifically to the apoB-antibody1 -complex. The thus formed apoB-antibody1 -antibody2 complex precipitated and was isolated by centrifuge. Quantification of the amount of apolipoprotein B synthesized during the night resulted from measuring the radioactivity of the isolated complex. To measure the inhibiting activity of the test compound, that test compound was added to the liquid medium at different concentrations and the concentration of apolipoprotein B synthesized in the presence of a test compound (concentration apoB(after)) was compared to the concentration of apolipoprotein B which was synthesized in the absence of the test compound (concentration apoB(control)). For each experiment the inhibition of apolipoprotein-B formation was expressed as
% inhibition=100×(1-concentration of apoB(after)/concentration
When more experiments were carried out for the same concentration, the median value of the inhibition calculated for these experiments was calculated. IC50 -values (concentration of the drug needed to reduce apoB secretion to 50% of the control) were also computed.
`Cn1cnnc1SC[C@]1(c2ccc(Cl)cc2)OC[C@H](COc2ccc(N3CCN(c4ccc(-n5ccn(C6CCCC6)c5=O)cc4)CC3)cc2)O1` (relative stereo) [Compound 123] yielded a half-inhibitory concentration (IC50) of 74 nM.
Regarding `CCC(C)n1ccn(-c2ccc(N3CCN(c4ccc(OC[C@H]5CO[C@](CSc6nncn6C)(c6ccc(F)cc6)O5)cc4)CC3)cc2)c1=O` (relative stereo) [Compound 126], the IC50 was 140 nM.
To `Cn1cnnc1SC[C@]1(c2ccc(F)cc2)OC[C@H](COc2ccc(N3CCN(c4ccc(-n5ccn(C6CCCC6)c5=O)cc4)CC3)cc2)O1` (relative stereo) [Compound 128] belongs 180 nM; to `CCC(CC)n1ccn(-c2ccc(N3CCN(c4ccc(OC[C@H]5CO[C@](CSc6nncn6C)(c6ccc(F)cc6)O5)cc4)CC3)cc2)c1=O` (relative stereo) [Compound 130], 140 nM; to `CC[C@H](C)n1ncn(-c2ccc(N3CCN(c4ccc(OC[C@@H]5CO[C@@](CSc6nncn6C)(c6ccc(Cl)cc6)O5)cc4)CC3)cc2)c1=O` [Compound 38], 65 nM.
`CC[C@@H](C)n1ncn(-c2ccc(N3CCN(c4ccc(OC[C@@H]5CO[C@@](CSc6nncn6C)(c6ccc(Cl)cc6)O5)cc4)CC3)cc2)c1=O` [Compound 40] yielded an IC50 of 23 nM.
